Experimental data published in patent US12281149B2, “Modulators of G-protein coupled receptors” (priority 2021, dated 2025).
Like-named read-outs stand apart in the source and are kept apart here. *1 amine or outer side, *2 acyl side, *3 side chain or, on linkers, in order; H or OH if unused. Where a SMILES comes first, the peptide text is derived from it. Side-chain parts run from the residue outwards. [ ]: non-standard residue; d: D form. The star is where a group is joined. Isobutyryl(2-(3-CN-5-F-Ph)) = CC(C)(C(=O)*)c1cc(F)cc(C#N)c1; C20 diacid = O=C(O)CCCCCCCCCCCCCCCCCCC(=O)*; γGlu = O=C(O)[C@H](CCC(=O)[*:2])N[*:1]; X60 = O=C(C1(c2cccnc2)CCCC1)*; X24 = O=C(C1(c2cccnc2)CCC1)*; X66 = NC(=O)C1(C(=O)*)CCC1; AEEA = NCCOCCOCC(=O)O; Aib = CC(C)(N)C(=O)O; CO = O=C([*:1])[*:2]; X67 = Cc1cccc(N*)c1; GABA = NCCCC(=O)O; βAla = NCCC(=O)O

Key:
GLP-1 receptor = GLP-1 receptor (Homo sapiens, UniProt P43220); test: HitHunter cAMP assay, GLP-1 receptor; type: cell-based; conditions: read-out: Emax GLP-1R
Procedure: CAMP accumulation was measured in Chinese hamster ovary (CHO) cells stably expressing the human GLP-1 receptor or GIP receptor using the HitHunter CAMP Assay for Small Molecules Kit (Eurofins). Briefly, cells were grown in Ham's F12 Nutrient Mix with 10% FBS and lifted with Cell dissociation buffer, Enzyme free, PBS based (ThermoFisher). Cells were pelleted and resuspended in Hank's buffered saline solution with 10 mM Hepes and 625 μM 3-isobutyl-1-methylxanthine. The antibody reagent was then added to cells at a 1:2 ratio and 5 μL of mixture was seeded in 384-well small volume white assay plates, at 10,000 cells/well. Cells were then treated with 50 nl compound in DMSO using an ECHO 550 acoustic dispenser (Labcyte) in a 20-point dose response format in triplicate for 30 min. Cells were the lysed and detection reagents added according to the manufacturer's protocol. After overnight incubation, luminescence was measured using a Perkin Elmer Envision plate reader. Raw data was normalized to the maximum signal from GLP-1 or GIP (high) and DMSO (low). Dose response curves were analyzed using GraphPad Prism 9.0.

GIP receptor = target: T1, GIP receptor (Homo sapiens, UniProt P48546); test: HitHunter cAMP assay, GIP receptor; type: cell-based; conditions: read-out: Emax GIP-1R
T1 sequence (P48546 22-466): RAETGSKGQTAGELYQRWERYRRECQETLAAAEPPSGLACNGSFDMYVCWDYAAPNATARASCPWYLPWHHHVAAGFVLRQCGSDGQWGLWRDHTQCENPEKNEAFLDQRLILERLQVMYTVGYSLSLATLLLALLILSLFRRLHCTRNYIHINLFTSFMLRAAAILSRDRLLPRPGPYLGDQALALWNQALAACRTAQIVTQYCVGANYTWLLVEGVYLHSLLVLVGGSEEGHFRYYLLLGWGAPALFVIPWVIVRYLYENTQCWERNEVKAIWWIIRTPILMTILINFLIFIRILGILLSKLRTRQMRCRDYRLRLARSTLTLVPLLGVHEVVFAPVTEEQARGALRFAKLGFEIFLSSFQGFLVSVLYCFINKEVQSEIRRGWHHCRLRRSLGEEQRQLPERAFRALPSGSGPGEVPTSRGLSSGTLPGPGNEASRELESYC

[1] = CHO cells, cAMP, normalized to maximum signal from GLP-1 (high) and DMSO (low)
[2] = CHO cells, cAMP, normalized to maximum signal from GIP (high) and DMSO (low)

Chain of GLP-1 receptor (P43220 24-463): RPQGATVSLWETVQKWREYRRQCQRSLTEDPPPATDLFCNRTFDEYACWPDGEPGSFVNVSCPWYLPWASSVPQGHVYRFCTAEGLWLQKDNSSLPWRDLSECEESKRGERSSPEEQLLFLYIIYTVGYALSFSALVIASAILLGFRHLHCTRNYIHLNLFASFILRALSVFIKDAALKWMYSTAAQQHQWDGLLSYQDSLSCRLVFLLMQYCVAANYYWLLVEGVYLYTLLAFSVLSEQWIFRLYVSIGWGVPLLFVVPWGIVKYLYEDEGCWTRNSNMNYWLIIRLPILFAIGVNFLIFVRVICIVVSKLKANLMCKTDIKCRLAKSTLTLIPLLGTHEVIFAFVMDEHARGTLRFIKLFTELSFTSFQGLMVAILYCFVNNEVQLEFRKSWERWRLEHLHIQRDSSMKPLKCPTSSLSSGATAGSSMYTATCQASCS

**Q.** Which results are given for `CC[C@H](C)[C@H](NC(=O)[C@H](CC(C)C)NC(=O)[C@H](Cc1c[nH]c2ccccc12)NC(=O)[C@H](CCC(N)=O)NC(=O)[C@@H](NC(=O)[C@H](Cc1ccccc1)NC(=O)[C@H](C)NC(=O)[C@H](CCCCNC(=O)COCCOCCNC(=O)COCCOCCNC(=O)CC[C@H](NC(=O)CCCCCCCCCCCCCCCCCCC(=O)O)C(=O)O)NC(=O)[C@H](CCC(N)=O)NC(=O)[C@H](C)NC(=O)[C@@H](NC(=O)[C@H](CCCCN)NC(=O)[C@H](CC(=O)O)NC(=O)[C@H](CC(C)C)NC(=O)C(C)(C)NC(=O)[C@@H](NC(=O)[C@H](CO)NC(=O)[C@H](Cc1ccc(O)cc1)NC(=O)[C@H](CC(=O)O)NC(=O)[C@H](CO)NC(=O)[C@@H](NC(=O)[C@H](Cc1ccccc1)NC(=O)[C@@H](NC(=O)CNC(=O)[C@H](CCC(=O)O)NC(=O)CCNC(=O)C(C)(C)c1cc(F)cc(C#N)c1)[C@@H](C)O)[C@@H](C)O)[C@@H](C)CC)[C@@H](C)CC)C(C)C)C(=O)N[C@@H](C)C(=O)NCC(=O)NCC(=O)N1CCC[C@H]1C(=O)N[C@@H](CO)C(=O)N[C@@H](CO)C(=O)NCC(=O)N[C@@H](C)C(=O)N1CCC[C@H]1C(=O)N1CCC[C@H]1C(=O)N1CCC[C@H]1C(=O)N[C@@H](CO)C(N)=O` [Compound 254] ({Isobutyryl(2-(3-CN-5-F-Ph))-βAla}-EGTFTSDYSI[Aib]LDKIAQK([AEEA-AEEA-γGlu-C20 diacid])AFVQWLIAGGPSSGAPPPS-NH2; C-terminus assumed)?
**A.** Emax (GLP-1 receptor; [1]): 93%; Emax (GIP receptor; [2]): 102%

**Q.** How did the Emax (GLP-1 receptor; [1]) turn out when `CC[C@H](C)[C@H](NC(=O)[C@H](CC(C)C)NC(=O)[C@H](Cc1c[nH]c2ccccc12)NC(=O)[C@H](CCC(N)=O)NC(=O)[C@@H](NC(=O)[C@H](Cc1ccccc1)NC(=O)[C@H](C)NC(=O)[C@H](CCCCNC(=O)COCCOCCNC(=O)COCCOCCNC(=O)CC[C@H](NC(=O)CCCCCCCCCCCCCCCCCCC(=O)O)C(=O)O)NC(=O)[C@H](CCC(N)=O)NC(=O)[C@H](C)NC(=O)[C@@H](NC(=O)[C@H](CCCCN)NC(=O)[C@H](CC(=O)O)NC(=O)[C@H](CC(C)C)NC(=O)C(C)(C)NC(=O)[C@@H](NC(=O)[C@H](CO)NC(=O)[C@H](Cc1ccc(O)cc1)NC(=O)[C@H](CC(=O)O)NC(=O)[C@H](CO)NC(=O)[C@@H](NC(=O)[C@H](Cc1ccccc1)NC(=O)[C@@H](NC(=O)CNC(=O)[C@H](CCC(=O)O)NC(=O)CCNC(=O)C1(c2cccnc2)CCC1)[C@@H](C)O)[C@@H](C)O)[C@@H](C)CC)[C@@H](C)CC)C(C)C)C(=O)N[C@@H](C)C(=O)NCC(=O)NCC(=O)N1CCC[C@H]1C(=O)N[C@@H](CO)C(=O)N[C@@H](CO)C(=O)NCC(=O)N[C@@H](C)C(=O)N1CCC[C@H]1C(=O)N1CCC[C@H]1C(=O)N1CCC[C@H]1C(=O)N[C@@H](CO)C(N)=O` [Compound 255] ({X24-βAla}-EGTFTSDYSI[Aib]LDKIAQK([AEEA-AEEA-γGlu-C20 diacid])AFVQWLIAGGPSSGAPPPS-NH2; C-terminus assumed) was run?
**A.** Its Emax is 90%.

**Q.** And the Emax (GIP receptor; [2])?
**A.** The Emax was 99%.

**Q.** `CC[C@H](C)[C@H](NC(=O)[C@H](CC(C)C)NC(=O)[C@H](Cc1c[nH]c2ccccc12)NC(=O)[C@H](CCC(N)=O)NC(=O)[C@@H](NC(=O)[C@H](Cc1ccccc1)NC(=O)[C@H](C)NC(=O)[C@H](CCCCNC(=O)COCCOCCNC(=O)COCCOCCNC(=O)CC[C@H](NC(=O)CCCCCCCCCCCCCCCCCCC(=O)O)C(=O)O)NC(=O)[C@H](CCC(N)=O)NC(=O)[C@H](C)NC(=O)[C@@H](NC(=O)[C@H](CCCCN)NC(=O)[C@H](CC(=O)O)NC(=O)[C@H](CC(C)C)NC(=O)C(C)(C)NC(=O)[C@@H](NC(=O)[C@H](CO)NC(=O)[C@H](Cc1ccc(O)cc1)NC(=O)[C@H](CC(=O)O)NC(=O)[C@H](CO)NC(=O)[C@@H](NC(=O)[C@H](Cc1ccccc1)NC(=O)[C@@H](NC(=O)CNC(=O)[C@H](CCC(=O)O)NC(=O)CCNC(=O)C1(c2cccnc2)CCCC1)[C@@H](C)O)[C@@H](C)O)[C@@H](C)CC)[C@@H](C)CC)C(C)C)C(=O)N[C@@H](C)C(=O)NCC(=O)NCC(=O)N1CCC[C@H]1C(=O)N[C@@H](CO)C(=O)N[C@@H](CO)C(=O)NCC(=O)N[C@@H](C)C(=O)N1CCC[C@H]1C(=O)N1CCC[C@H]1C(=O)N1CCC[C@H]1C(=O)N[C@@H](CO)C(N)=O` [Compound 256] ({X60-βAla}-EGTFTSDYSI[Aib]LDKIAQK([AEEA-AEEA-γGlu-C20 diacid])AFVQWLIAGGPSSGAPPPS-NH2; C-terminus assumed) was tested. Which Emax (GLP-1 receptor; [1]) did it give?
**A.** Its Emax is 98%.

**Q.** What about the Emax (GIP receptor; [2]) of the same molecule?
**A.** Its Emax is 104%.

**Q.** What does the source list for `CC[C@H](C)[C@H](NC(=O)[C@H](CC(C)C)NC(=O)[C@H](Cc1c[nH]c2ccccc12)NC(=O)[C@H](CCC(N)=O)NC(=O)[C@@H](NC(=O)[C@H](Cc1ccccc1)NC(=O)[C@H](C)NC(=O)[C@H](CCCCNC(=O)COCCOCCNC(=O)COCCOCCNC(=O)CC[C@H](NC(=O)CCCCCCCCCCCCCCCCCCC(=O)O)C(=O)O)NC(=O)[C@H](CCC(N)=O)NC(=O)[C@H](C)NC(=O)[C@@H](NC(=O)[C@H](CCCCN)NC(=O)[C@H](CC(=O)O)NC(=O)[C@H](CC(C)C)NC(=O)C(C)(C)NC(=O)[C@@H](NC(=O)[C@H](CO)NC(=O)[C@H](Cc1ccc(O)cc1)NC(=O)[C@H](CC(=O)O)NC(=O)[C@H](CO)NC(=O)[C@@H](NC(=O)[C@H](Cc1ccccc1)NC(=O)[C@@H](NC(=O)CNC(=O)[C@H](CCC(=O)O)NC(=O)CCNC(=O)C1(C(N)=O)CCC1)[C@@H](C)O)[C@@H](C)O)[C@@H](C)CC)[C@@H](C)CC)C(C)C)C(=O)N[C@@H](C)C(=O)NCC(=O)NCC(=O)N1CCC[C@H]1C(=O)N[C@@H](CO)C(=O)N[C@@H](CO)C(=O)NCC(=O)N[C@@H](C)C(=O)N1CCC[C@H]1C(=O)N1CCC[C@H]1C(=O)N1CCC[C@H]1C(=O)N[C@@H](CO)C(N)=O` [Compound 257] ({X66-βAla}-EGTFTSDYSI[Aib]LDKIAQK([AEEA-AEEA-γGlu-C20 diacid])AFVQWLIAGGPSSGAPPPS-NH2; C-terminus assumed)?
**A.** Emax (GLP-1 receptor; CHO): 89%; Emax (GIP receptor; CHO): 92%

**Q.** Which Emax (GLP-1 receptor; CHO) does the source give for `CC[C@H](C)[C@H](NC(=O)[C@H](CC(C)C)NC(=O)[C@H](Cc1c[nH]c2ccccc12)NC(=O)[C@H](CCC(N)=O)NC(=O)[C@@H](NC(=O)[C@H](Cc1ccccc1)NC(=O)[C@H](C)NC(=O)[C@H](CCCCNC(=O)COCCOCCNC(=O)COCCOCCNC(=O)CC[C@H](NC(=O)CCCCCCCCCCCCCCCCCCC(=O)O)C(=O)O)NC(=O)[C@H](CCC(N)=O)NC(=O)[C@H](C)NC(=O)[C@@H](NC(=O)[C@H](CCCCN)NC(=O)[C@H](CC(=O)O)NC(=O)[C@H](CC(C)C)NC(=O)C(C)(C)NC(=O)[C@@H](NC(=O)[C@H](CO)NC(=O)[C@H](Cc1ccc(O)cc1)NC(=O)[C@H](CC(=O)O)NC(=O)[C@H](CO)NC(=O)[C@@H](NC(=O)[C@H](Cc1ccccc1)NC(=O)[C@@H](NC(=O)CNC(=O)[C@H](CCC(=O)O)NC(=O)CCCNC(=O)CNC(=O)Nc1cccc(C)c1)[C@@H](C)O)[C@@H](C)O)[C@@H](C)CC)[C@@H](C)CC)C(C)C)C(=O)N[C@@H](C)C(=O)NCC(=O)NCC(=O)N1CCC[C@H]1C(=O)N[C@@H](CO)C(=O)N[C@@H](CO)C(=O)NCC(=O)N[C@@H](C)C(=O)N1CCC[C@H]1C(=O)N1CCC[C@H]1C(=O)N1CCC[C@H]1C(=O)N[C@@H](CO)C(N)=O` [Compound 258] ({X67-CO}-G[GABA]EGTFTSDYSI[Aib]LDKIAQK([AEEA-AEEA-γGlu-C20 diacid])AFVQWLIAGGPSSGAPPPS-NH2; C-terminus assumed) here?
**A.** Its Emax is 100%.

**Q.** And the Emax (GIP receptor; CHO)?
**A.** Its Emax is 101%.
